Where two headings read alike, the source gives them in different places.
How the values were obtained:
[1] = test system: RF strain of HIV (CEM-SS cells); assay: Cell Culture Anti-HIV Activity (cell viability, formazan); format: cell-based; settings: CEM-SS cells, RF strain of HIV, multiplicity of infection 0.04, 6 days at 37° C., 450 nm, read-out: HIV (CEM Cells) IC50
Outline: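 CEM-SS cells (5000/well) infected with HIV RF at MOI 0.04, exposed to half-log serial compound dilutions, incubated 6 days at 37° C. Viability read by tetrazolium reduction to formazan, absorbance 450 nm. IC50 is the concentration raising formazan in infected cells to 50% of uninfected, drug-free cells.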

HIV protease = target: T1, HIV protease (Human immunodeficiency virus type 1 group M subtype B, UniProt P04585); assay: HIV Protease Assay; format: biochemical
T1 construct: and purified protease
Outline: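 Purified protease cleaved 450 μM octapeptide substrate in 50 mM sodium acetate pH 5.5 with 100 μg/ml BSA for 30 minutes at 37° C; product analyzed by reverse-phase HPLC at UV220 after H3PO4 quench. Inhibitors tested at final 10 μM with 4% DMSO.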

[2] = Human immunodeficiency virus 1, CEM-SS, 144 h
[3] = pH 5.5, 10 μM inhibitor, 4% DMSO, 450 μM substrate, pH 5.5, 30 minutes at 37° C., RP-HPLC, read-out: HIV Protease % Inhibition at 10 μM

Row | Compound | IC50 [1, 2] [nM] | inhibition at 10 µM (HIV protease; [3]) [%] | IC50 [1] [nM] | inhibition at 10 µM (HIV protease; pH 5.5, read-out: HIV Protease % Inhibition at 10 μM) [%]
1 | CC(C)[C@H](NC(=O)CC(O)CO)C(=O)N[C@@H](Cc1ccccc1)[C@H](O)CNC[C@@H](O)[C@H](Cc1ccccc1)NC(=O)OC(C)(C)C (relative stereo) [Compound 254, [1R*,2S*(2S*,3R*)]-N-[3-[[3-[[(1,1-Dimethylethoxy)carbonyl]amino]-2-hydroxy-4-phenylbutyl]amino]-2-hydroxy-1-(phenylmethyl)propyl]-N^2-(3,4-dihydroxy-1-oxobutyl)-L-valinamide] | 17000 | 98 |  | 
2 | CC[C@H](C)[C@H](NC(=O)OCc1ccccc1)[C@H](O)CNC[C@@H](O)[C@H](Cc1ccccc1)NC(=O)OC(C)(C)C [Compound 16, [2S-[2R*,[S*(2S*,3R*)]]-[1-Hydroxy-3-[[(1,1-dimethylethoxy)carbonyl]-amino]-2-hydroxy-4-phenylbutyl]amino]ethyl-2-methylbutyl]carbamic acid, phenylmethyl ester] | ≥ 2300 | 83 |  | 
3 | CC(C)(C)OC(=O)N[C@@H](Cc1ccccc1)[C@H](O)CNC[C@@H](O)[C@H](Cc1ccc(OCCN2CCOC2=O)cc1)NC(=O)OC(C)(C)C [Compound 343, [1S-[1R*,2S*(2S*,3R*)]]-[1-[[[3-[[(1,1-Dimethylethoxy)carbonyl]amino]-2-hydroxy-4-[4-[2-(2-oxo-3-oxazolidinyl)ethoxy]phenyl]butyl]amino]-2-hydroxy-1-(phenylmethyl)propyl]carbamic acid, 1,1-dimethylethyl ester] | 50 | 99 |  | 
4 | CC(C)[C@H](NC(=O)N(C)Cc1ccccn1)C(=O)N[C@@H](Cc1ccccc1)[C@H](O)CNC[C@@H](O)[C@H](Cc1ccccc1)NC(=O)OC(C)(C)C [Compound 76, [S-[1R*,2S*(2S*,3R*)]]-N-[3-[[3-[[(1,1-Dimethylethoxy)carbonylamino]-2-hydroxy-4-phenylbutyl]amino]-2-hydroxy-1-(phenylmethyl)propyl]-N^2 [[methyl(2-pyridinyl-methyl)amino]carbonyl]-L-valinamide] | 600 | 100 |  | 
5 | CC(C)(C)OC(=O)N[C@@H](Cc1ccccc1)[C@H](O)CNC[C@@H](O)[C@H](Cc1ccc(OCc2nc3ccccc3o2)cc1)NC(=O)OC(C)(C)C [Compound 242, [1S-[1R*,2S*(2S*,3R*)]]-[3-[[4-[4-[(2-Benzoxazolyl)methoxy]phenyl]-3-[[(1,1-dimethylethoxy)carbonyl]amino]-2-hydroxybutyl]amino]-2-hydroxy-1-(phenylmethyl)propyl]carbamic acid, 1,1-dimethylethyl ester] | 110 | 99 |  | 
6 | CC(C)(C)OC(=O)N[C@@H](Cc1ccccc1)[C@H](O)CNC[C@@H](O)[C@H](Cc1ccccc1)NC(=O)C(NC(=O)OCc1ccccc1)C(C)(C)CO (single isomer, unassigned; isomer a) [Compound 308, [1S-[1R*,2S*(2S*,3R*)]]-1-[[[3-[[(1,1-Dimethylethoxy)carbonyl]amino]-2-hydroxy-4-phenylbutyl]amino]-2-hydroxy-1-(phenylmethyl)propyl]amino]carbonyl-2-(hydroxymethyl)-2-methylpropyl] carbamic acid, phenylmethyl ester, isomer A] |  | 100 | 20 | 
7 | CC(C)(C)OC(=O)N[C@@H](Cc1ccccc1)[C@H](O)CNC[C@@H](O)[C@H](Cc1ccccc1)NC(=O)SC(C)(C)C [Compound 184, [1S-[1R*,2S*(2S*,3R*)]]-[3-[[3-[[[(1 1-Dimethylethyl)thio)carbonyl]amino]-2-hydroxy-4-phenylbutyl]amino]-2-hydroxy-1-(phenylmethyl)-propyl]carbamic acid, 1,1-dimethylethyl ester] | 1300 | 99 |  | 
8 | CC(C)(C)OC(=O)N[C@@H](Cc1ccccc1)[C@H](O)CNC[C@@H](O)[C@H](Cc1ccccc1)NC(=O)C1(O)CCCC1(C)C (single isomer, unassigned; isomer a) [Compound 321, [1S-[1R*,2S*(2S*,3R*)]]-[3-[[3-[[2,2-Dimethyl-1-hydroxycyclopentyl)-carbonyl]amino]-2-hydroxy-4-phenylbutyl]amino]-2-hydroxy-1-(phenylmethyl)propyl]carbamic acid, 1,1-dimethylethyl ester, isomer A] |  |  | 200 | 100
9 | COC(=O)N(C)[C@H](C(=O)N[C@@H](Cc1ccccc1)[C@H](O)CNC[C@@H](O)[C@H](Cc1ccccc1)NC(=O)OC(C)(C)C)C(C)(C)C [Compound 320, [1S-[1R*,2S*,(2S*,3R*)]-[2,2-Dimethyl-1-[[[3-[[3-(1,1-dimethylethoxy)-carbonyl]amino]-2-hydroxy-4-phenylbutyl]amino]-2-hydroxy-1-(phenylmethyl)propyl]amino]-carbonyl]propyl]methylcarbamic acid, methyl ester] | 220 | 100 |  | 
10 | CC(C)(C)OC(=O)N[C@@H](Cc1ccccc1)[C@H](O)CNC[C@@H](O)[C@H](Cc1ccc(OCCCN2CCOCC2)cc1)NC(=O)OC(C)(C)C [Compound 201, [1S-[1R*,2S*(2S*,3R*)]]-[3-[[3-[[(1,1-Dimethylethoxy)carbonyl]aminol-2-hydroxy-4-[4-[3-(4-morpholinyl)propoxy]phenyl]butyl]amino]-2-hydroxy-1-(phenylmethyl)propyl]carbamic acid, 1,1-dimethylethyl ester] | 40 | 99 |  | 
11 | CC(C)[C@H](NC(=O)OCCNc1ccccc1)C(=O)N[C@@H](Cc1ccccc1)[C@H](O)CNC[C@@H](O)[C@H](Cc1ccccc1)NC(=O)OC(C)(C)C (relative stereo) [Compound 203, [1R*,2S*(2S*,3R*)]-N-[3-[[3-[[(1,1-Dimethylethoxy)carbonyl]amino]-2-hydroxy-4-phenylbutyl]amino]-2-hydroxy-1-(phenylmethyl)propyl]-N^2-[[2-(phenylamino)ethoxy]carbonyl]-L-valinamide] | 200 | 98 |  | 
12 | COCCCCOc1ccc(C[C@H](NC(=O)OC(C)(C)C)[C@H](O)CNC[C@@H](O)[C@H](Cc2ccccc2)NC(=O)OC(C)(C)C)cc1 [Compound 300, [1S-[1R*,2S*(2S*,3R*)]]-[3-[[3-[[(1,1-Dimethylethoxy)-carbonyl]amino]-2-hydroxy-4-[4-(4-methoxybutoxy)phenyl]butyl]amino]-2-hydroxy-1-(phenylmethyl)propyl]carbamic acid, 1,1-dimethylethyl ester] | 30 | 99 |  | 
13 | CC(C)(C)OC(=O)N[C@@H](Cc1ccccc1)[C@H](O)CNC[C@@H](O)[C@H](Cc1ccccc1)NC(=O)OC1(C)CCOC1 (stereo partly drawn) [Compound 314, [1S-(1R*,2S*)]-[Iminobis[2-hydroxy-1-(phenylmethyl)-3,1-propanediyl]]bis[carbamic acid], 1,1-dimethylethyl-3-methyl-3-tetrahydrofuranyl ester] | 120 | 100 |  | 
14 | O=C(N[C@@H](Cc1ccccc1)[C@H](O)CNC[C@@H](O)[C@H](Cc1ccccc1)NC(=O)O[C@H]1CCOC1)O[C@H]1CCOC1 [Compound 338, [1S-(1R*,2S*), (R*)]-[Iminobis[2-hydroxy-1-(phenylmethyl)-3,1-propanediyl]]bis[carbamic acid], bis(3-tetrahydrofuranyl)ester] | 930 | 99 |  | 

Source: patent publication US5760036A, “Aminediol protease inhibitors” (E. R. Squibb & Sons, Inc., priority 1995, dated 1998)
